Literature values in US20230143309A1, “PYRROLOBENZODIAZEPINE ANTIBODY CONJUGATES” (priority 2016, published 2023).

Columns and labels:
[1] = tested on: human tumour xenograft models; details: quoted from UCL REF 2014 impact study
[2] = tested on: human tumour cell lines; details: for activity against a range of human tumour cell lines: quoted from UCL REF 2014 impact study

Structure (SMILES)	activity in human tumour xenograft models [1]	activity against a range of human tumour cell lines [2]	cytotoxicity relative to SG2057 (less cytotoxic) ([2]; Hartley et al 2012)
COc1ccc(C2=CN3C(=O)c4cc(OC)c(OCCCOc5cc6c(cc5OC)C(=O)N5C=C(c7ccc(OC)cc7)C[C@H]5C=N6)cc4N=C[C@@H]3C2)cc1 [SG2202]	curative activity	picomolar/sub-picomolar activity	–
C=C1C[C@H]2C=Nc3cc(OCCCCCOc4cc5c(cc4OC)C(=O)N4CC(=C)C[C@H]4C=N5)c(OC)cc3C(=O)N2C1 [SG2057]	curative activity	picomolar/sub-picomolar activity	–
C=C1C[C@H]2C=Nc3cc(OCCCOc4cc5c(cc4OC)C(=O)N4CC(=C)C[C@H]4C=N5)c(OC)cc3C(=O)N2C1 [SG2000]	–	–	at least 10 times
